From patent US20230284618A1, “HERBICIDAL COMBINATIONS” (UPL Corporation Limited, priority 2022, published 2023)

Tests used:
Format in all cases: in vivo
[1] = test system: Common Ragweed; assay: Pre-emergence bio-efficacy, weed control 27 DAT; conditions: 27 days after treatment, G ai: imazamox 105, rimsulfuron 70, pendimethalin 4270, mesotrione 210
Procedure: (§1) Experiments were carried out to evaluate the bio-efficacy of the herbicidal combinations according to the present disclosure. The herbicides were applied at the pre-emergence stage. The results have been disclosed in Tables 1-5.
(§2) Weeds: Giant Foxtail, Common Ragweed, Galinsoga, Yellow Nutsedge

[2] = test system: Yellow Nutsedge; assay: Pre-emergence bio-efficacy, weed control 27 DAT; conditions: 27 days after treatment, G ai: imazamox 105, rimsulfuron 70, pendimethalin 4270, mesotrione 210
Procedure: as §1, §2

[3] = test system: Galinsoga; assay: Pre-emergence bio-efficacy, weed control 27 DAT; conditions: 27 days after treatment, G ai: imazamox 105, rimsulfuron 70, pendimethalin 4270, mesotrione 210
Procedure: as §1, §2

[4] = test system: Giant Foxtail; assay: Pre-emergence bio-efficacy, weed control 27 DAT; conditions: 27 days after treatment, G ai: imazamox 105, rimsulfuron 70, pendimethalin 4270, mesotrione 210
Procedure: as §1, §2

[5] = test system: Geranium spp.; assay: Pre-emergence bio-efficacy, weed control 85 DAT; conditions: 85 days after treatment, G ai: imazamox 105, rimsulfuron 70, pendimethalin 4270, mesotrione 210
Procedure: as §1
(§3) Weeds: Common Velvetgrass, Broadleaf spp., Red Sorrel, Dandelion, Geranium spp.

[6] = test system: Dandelion; assay: Pre-emergence bio-efficacy, weed control 85 DAT; conditions: 85 days after treatment, G ai: imazamox 105, rimsulfuron 70, pendimethalin 4270, mesotrione 210
Procedure: as §1, §3

[7] = test system: Red Sorrel; assay: Pre-emergence bio-efficacy, weed control 85 DAT; conditions: 85 days after treatment, G ai: imazamox 105, rimsulfuron 70, pendimethalin 4270, mesotrione 210
Procedure: as §1, §3

SMILES | Control 27 DAT (%) Common Ragweed [1] | Control 27 DAT (%) Yellow Nutsedge [2] | Control 27 DAT (%) Galinsoga [3] | Control 27 DAT (%) Giant Foxtail [4] | Control 85 DAT (%) Geranium spp. [5] | Control 85 DAT (%) Dandelion [6] | Control 85 DAT (%) Red Sorrel [7]
COCc1cnc(C2=NC(C)(C(C)C)C(=O)N2)c(C(=O)O)c1 (stereo not shown) [Imazamox] | 63% | 40% | 53% | 58% | 8% | 5% | 13%
CS(=O)(=O)c1ccc(C(=O)C2C(=O)CCCC2=O)c([N+](=O)[O-])c1 [Mesotrione] | – | – | – | – | 5% | 8% | 8%
CCC(CC)Nc1c([N+](=O)[O-])cc(C)c(C)c1[N+](=O)[O-] [Pendimethalin] | – | – | – | – | 18% | 20% | 15%
CCS(=O)(=O)c1cccnc1S(=O)(=O)NC(=O)Nc1nc(OC)cc(OC)n1 [Rimsulfuron] | – | – | – | – | 28% | 45% | 18%
